# Experimental data: patent US9521847B2, “Synergistic weed control from applications of pyridine carboxylic acid herbicides and synthetic auxin herbicides and/or auxin transport inhibitors” (Dow AgroSciences LLC, priority 2014, dated 2016)
# How the values were obtained:
# [1] = tested on: winter wheat (TRZAW); details: winter wheat (Triticum aestivum), in vivo
# [2] = tested on: kochia (KCHSC, Kochia scoparia); assay: Patio postemergence trial, % visual injury; type: in vivo; details: 280 g ae/ha alone, 20-22 d
# Protocol: (§1) The plants were grown for 7-36 days (d) on a fenced, open-air patio. Nutrients and water were added on a regular basis.
# (§2) Temperatures and photoperiods were dependent on the natural weather conditions during the trials. Weather conditions during trials were conducive for plant growth and development.
# [3] = tested on: pigweed (AMARE, Amaranthus retroflexus); assay: Patio postemergence trial, % visual injury; type: in vivo; details: 280 g ae/ha alone, 20-22 d
# Protocol: as §1, §2
# [4] = tested on: blackgrass (Alopecurus myosuroides, ALOMY); assay: Greenhouse postemergence trial, % visual injury; type: in vivo; details: 140 g ae/ha
# [5] = tested on: wild buckwheat (POLCO, Polygonum convolvulus); assay: Small plot field trial (Canada), % visual injury; type: in vivo; details: 560 g ae/ha alone, 15 DAA
# Protocol: (§3) Trials were established as randomized complete blocks with 3-4 replicates. Individual plots were 2-3 meters (m) wide and 8-10 m long. Applications were made with backpack or tractor-mounted sprayers delivering a spray volume output of 100 liters per hectare (L/ha) using pressurized carbon dioxide (CO2) as a propellant. Compound 7 was combined with 2,4 D EHE (660 g ae/L EC formulation) and applied to spring wheat (TRZAS), and the phytotoxicity of the herbicidal compositions was measured. In addition, the efficacy of the herbicidal composition on Canadian thistle ([…], Cirsium arvense), […] scoparia), mallow ([…] pusilla), wild buckwheat (POLCO, Polygonum convolvulus), and lady's thumb (POLPE, Polygonum persicaria) was evaluated.
# [6] = tested on: CIRAR = Cirsium arvense (Canadian thistle); assay: Small plot field trial (Canada), % visual injury; type: in vivo; details: 560 g ae/ha alone, 46-64 DAA
# Protocol: as §3
# [7] = tested on: lady's thumb (POLPE, Polygonum persicaria); assay: Small plot field trial (Canada), % visual injury; type: in vivo; details: 560 g ae/ha alone, 14-16 DAA
# Protocol: as §3
# [8] = tested on: MALPU = Malva pusilla (mallow); assay: Small plot field trial (Canada), % visual injury; type: in vivo; details: 560 g ae/ha alone, 26-33 DAA
# Protocol: as §3
# [9] = tested on: kochia (KCHSC, Kochia scoparia); assay: Small plot field trial (Canada), % visual injury; type: in vivo; details: 560 g ae/ha alone, 46-64 DAA
# Protocol: as §3
# [10] = tested on: spring wheat (TRZAS); assay: Small plot field trial (Canada), crop phytotoxicity (% visual injury); type: in vivo, Triticum aestivum; details: 560 g ae/ha alone
# Text: Small plot field trials were established in Canada to evaluate efficacy and crop safety of Compound 7 with 2,4-D EHE. Trials were established as randomized complete blocks with 3-4 replicates. Individual plots were 2-3 meters (m) wide and 8-10 m long. Applications were made with backpack or tractor-mounted sprayers delivering a spray volume output of 100 liters per hectare (L/ha) using pressurized carbon dioxide (CO2) as a propellant. Compound 7 was combined with 2,4 D EHE (660 g ae/L EC formulation) and applied to spring wheat (TRZAS), and the phytotoxicity of the herbicidal compositions was measured. In addition, the efficacy of the herbicidal composition on Canadian thistle ([…], Cirsium arvense), kochia (KCHSC, Kochia scoparia), mallow (MALPU, Marva pusilla), wild buckwheat (POLCO, Polygonum convolvulus), and lady's thumb (POLPE, Polygonum persicaria) was evaluated.
# [11] = tested on: ivyleaved speedwell (Veronica hederifolia, VERHE); assay: Greenhouse postemergence trial, % visual injury; type: in vivo; details: compound 1 (EC) 5 g ae/ha
# [12] = tested on: rutabaga (Brassica napus var. napobrassica, BRSNA); assay: Greenhouse postemergence trial, % visual injury; type: in vivo
# [13] = tested on: wild radish (Raphanus raphanistrum, RAPRA); assay: Greenhouse postemergence trial, % visual injury; type: in vivo
# [14] = tested on: brown mustard (Brassica juncea, BRSJU); assay: Greenhouse postemergence trial, % visual injury; type: in vivo
# [15] = tested on: Roundup Ready rape (Brassica napus, BRSNN-RR); assay: Greenhouse postemergence trial, % visual injury; type: in vivo; details: compound 1 (EC) 5 g ae/ha
# [16] = tested on: turnip (Brassica rapa, BRSRR); assay: Greenhouse postemergence trial, % visual injury; type: in vivo; details: for % visual injury, Obs: BRSRR, compound 1 (EC) 5 g ae/ha
# [17] = tested on: barnyardgrass (Echinochloa crus-galli, ECHCG); assay: Greenhouse postemergence trial, % visual injury; type: in vivo
# [18] = 5 g ae/ha alone (compound 1 as EC), 20-22 d
smiles,measurement,setting,value
"CCCCC(CC)COC(=O)COc1ccc(Cl)cc1Cl (centres unmarked) [2,4-D EHE, 2-ethylhexyl (2,4-dichlorophenoxy)acetate, reference compound]","% visual injury, Obs",[1],0%
same,% visual injury Obs,[2],10%
same,% visual injury Obs,[3],50%
same,"% visual injury, Obs",[4],0%
same,% visual injury Obs,[5],51%
same,% visual injury Obs,[6],65%
same,% visual injury Obs,[7],55%
same,% visual injury Obs,[8],74%
same,% visual injury Obs,[9],25%
same,% visual injury Obs,[10]; 6-8 DAA,3%
same,% visual injury Obs,[10]; 14-16 DAA,0%
Nc1c(F)c(-c2ccc3cc[nH]c3c2F)nc(C(=O)O)c1Cl [compound 1],% visual injury (Obs),[11],40%
same,% visual injury Obs,[12]; [18],65%
same,"% visual injury, Obs","[12]; BRSNA, compound 1 (EC) 5 g ae/ha, Table 63",65%
same,% visual injury (Obs),[13]; compound 1 SC 2.5 g ae/ha,13%
same,% visual injury (Obs),[13]; compound 1 SC 5 g ae/ha,13%
same,% visual injury Obs,[14]; [18],60%
same,"% visual injury, Obs","[14]; BRSJU, compound 1 (EC) 5 g ae/ha, Table 62",60%
same,"% visual injury, Obs",[15]; Table 62,35%
same,"% visual injury, Obs",[15]; Table 63,35%
same,"% visual injury, Obs",[16]; Table 62,50%
same,"% visual injury, Obs",[16]; Table 63,50%
same,% visual injury (Obs),[16]; compound 1 SC 2.5 g ae/ha,45%
same,% visual injury (Obs),[16]; compound 1 SC 5 g ae/ha,62%
same,"% visual injury, Obs","[17]; ECHCG, 5 g ae/ha",65%
same,% visual injury (Obs),[17]; compound 1 (EC) 5 g ae/ha,65%
